A short description of series [1]: Compound was evaluated for oral bioavailability in dogs; 37-38 %. It counts as ADME, organism-based, Canis lupus familiaris. To be noted: dog, in vivo.
A short description of series [2]: Solubility in water. Format: physicochemical. To be noted: read-out: S.

Structures are written as SMILES. Converted amounts (≈) assume the structure as drawn.

We go through one compound from ChEMBL document CHEMBL1129172, “Synthesis of water soluble prodrug of DMP323” (Bioorg Med Chem Lett, 1996).

In the case of `O=C1N(Cc2ccc(CO)cc2)[C@H](Cc2ccccc2)[C@H](O)[C@@H](O)[C@@H](Cc2ccccc2)N1Cc1ccc(CO)cc1` [DMP-323], the bioavailability – broadly, the share of a dose that reaches the circulation, judged against a reference dose that is usually intravenous – in series [1] came out at 38%. Moreover, the solubility in series [2] was determined as 10 µg/mL (≈ 17.6 µM).
